Key:
Assay in all cases: microbe, parasite or virus in culture
Type in all cases: cell-based
[1] = system: influenza A virus minigenome (PB2, PB1, PA, NP; luciferase reporter) in 293T cells, RNP_Hubei; settings: HEK-293T, 48 h
[2] = system: influenza A virus minigenome (PB2, PB1, PA, NP; luciferase reporter) in 293T cells, RNP_CAL; settings: HEK-293T, 48 h, read-out: RNP_CAL_EC50
[3] = system: influenza A virus minigenome (PB2, PB1, PA, NP; luciferase reporter) in 293T cells, RNP_Alaska; settings: HEK-293T, 48 h

SMILES | EC50 [1] [nM] | EC50 [2] [nM] | EC50 [3] [nM]
CC(=O)Oc1c2n(ncc1=O)[C@@H]([C@H](c1ccc(F)cc1)c1cccc(F)c1F)[C@H]1CCCN1C2=O [Example 83, (9aR,10S)-10-((R)-(2,3-difluorophenyl)(4-fluorophenyl)methyl)-3,5-dioxo-3,5,8,9,9a,10-hexahydro-7H-pyrrolo[1′,2′:4,5]pyrazino[1,2-b]pyridazin-4-yl acetate] | < 100 | < 100 | < 100
O=C1c2c(O)c(=O)cnn2[C@@H]([C@H](c2ccc(F)cc2)c2cccc(OC(F)(F)F)c2)[C@H]2CCCN12 [Example 22, (9aR,10S)-10-((R)-(4-fluorophenyl)(3-(trifluoromethoxy)phenyl)methyl)-4-hydroxy-8,9,9a,10-tetrahydro-7H-pyrrolo[1′,2′:4,5]pyrazino[1,2-b]pyridazine-3,5-dione] | 100 to 1000 | 100 to 1000 | 100 to 1000
CN(C)C(=O)Oc1c2n(ncc1=O)[C@@H]([C@H](c1ccccc1)c1cccc(F)c1F)[C@H]1CCCN1C2=O [Example 35, (9aR,10S)-10-((R)-(2,3-difluorophenyl)(phenyl)methyl)-3,5-dioxo-3,5,8,9,9a,10-hexahydro-7H-pyrrolo[1′,2′:4,5]pyrazino[1,2-b]pyridazin-4-yl dimethylcarbamate] | ≥ 1000 | ≥ 1000 | ≥ 1000
CN1CCN(C(=O)Oc2c3n(ncc2=O)[C@@H]([C@H](c2cccc(F)c2)c2cccc(F)c2F)[C@H]2CCCN2C3=O)CC1 [Example 100, (9aR,10S)-10-((R)-(2,3-difluorophenyl)(3-fluorophenyl)methyl)-3,5-dioxo-3,5,8,9,9a,10-hexahydro-7H-pyrrolo[1′,2′:4,5]pyrazino[1,2-b]pyridazin-4-yl 4-methylpiperazine-1-carboxylate] | 100 to 1000 | ≥ 1000 | ≥ 1000
CCC(=O)Oc1c2n(ncc1=O)[C@@H]([C@H](c1cccc(F)c1)c1cccc(F)c1F)[C@H]1CCCN1C2=O [Example 106, (9aR,10S)-10-((R)-(2,3-difluorophenyl)(3-fluorophenyl)methyl)-3,5-dioxo-3,5,8,9,9a,10-hexahydro-7H-pyrrolo[1′,2′:4,5]pyrazino[1,2-b]pyridazin-4-yl propionate] | < 100 | < 100 | < 100
COC(=O)OCOc1c2n(ncc1=O)[C@@H]([C@H](c1ccccc1)c1cccc(F)c1F)[C@H]1CCCN1C2=O [Example 30, (((9aR,10S)-10-((R)-(2,3-difluorophenyl)(phenyl)methyl)-3,5-dioxo-3,5,8,9,9a,10-hexahydro-7H-pyrrolo[1′,2′:4,5]pyrazino[1,2-b]pyridazin-4-yl)oxy)methyl methyl carbonate] | < 100 | < 100 | < 100
O=C(CC1CCOCC1)Oc1c2n(ncc1=O)[C@@H]([C@H](c1ccccc1)c1cccc(F)c1F)[C@H]1CCCN1C2=O [Example 73, (9aR,10S)-10-((R)-(2,3-difluorophenyl)(phenyl)methyl)-3,5-dioxo-3,5,8,9,9a,10-hexahydro-7H-pyrrolo[1′,2′:4,5]pyrazino[1,2-b]pyridazin-4-yl 2-(tetrahydro-2H-pyran-4-yl)acetate] | < 100 | < 100 | < 100
CC(=O)Oc1c2n(ncc1=O)[C@@H]([C@H](c1ccccc1)c1cccc(F)c1F)[C@H]1CCCN1C2=O [Example 58, (9aR,10S)-10-((R)-(2,3-difluorophenyl)(phenyl)methyl)-3,5-dioxo-3,5,8,9,9a,10-hexahydro-7H-pyrrolo[1′,2′:4,5]pyrazino[1,2-b]pyridazin-4-yl acetate] | < 100 | < 100 | < 100
Cc1oc(=O)oc1COc1c2n(ncc1=O)[C@@H]([C@H](c1ccc(F)cc1)c1cccc(F)c1F)[C@H]1CCCN1C2=O [Example 80, (9aR,10S)-10-((R)-(2,3-difluorophenyl)(4-fluorophenyl)methyl)-4-((5-methyl-2-oxo-1,3-dioxol-4-yl)methoxy)-8,9,9a,10-tetrahydro-7H-pyrrolo[1′,2′:4,5]pyrazino[1,2-b]pyridazine-3,5-dione] | < 100 | < 100 | < 100
Cc1c(F)cccc1[C@@H](c1ccc(F)cc1)[C@H]1[C@H]2CCCN2C(=O)c2c(O)c(=O)cnn21 [Example 18, (9aR,10S)-10-((R)-(3-fluoro-2-methylphenyl)(4-fluorophenyl)methyl)-4-hydroxy-8,9,9a,10-tetrahydro-7H-pyrrolo[1′,2′:4,5]pyrazino[1,2-b]pyridazine-3,5-dione] | < 100 | < 100 | < 100
CC(C)OC(=O)OCOc1c2n(ncc1=O)[C@@H]([C@H](c1ccccc1)c1cccc(F)c1F)[C@H]1CCCN1C2=O [Example 52, (((9aR,10S)-10-((R)-(2,3-difluorophenyl)(phenyl)methyl)-3,5-dioxo-3,5,8,9,9a,10-hexahydro-7H-pyrrolo[1′,2′:4,5]pyrazino[1,2-b]pyridazin-4-yl)oxy)methyl isopropyl carbonate] | < 100 | < 100 | < 100
COc1cccc([C@@H](c2cccc(F)c2F)[C@H]2[C@H]3CCCN3C(=O)c3c(O)c(=O)cnn32)c1 [Example 29, (9aR,10S)-10-((S)-(2,3-difluorophenyl)(3-methoxyphenyl)methyl)-4-hydroxy-8,9,9a,10-tetrahydro-7H-pyrrolo[1′,2′:4,5]pyrazino[1,2-b]pyridazine-3,5-dione] | 100 to 1000 | 100 to 1000 | 100 to 1000
CCOC(=O)OCOc1c2n(ncc1=O)[C@@H]([C@H](c1ccccc1)c1cccc(F)c1F)[C@H]1CCCN1C2=O [Example 51, (((9aR,10S)-10-((R)-(2,3-difluorophenyl)(phenyl)methyl)-3,5-dioxo-3,5,8,9,9a,10-hexahydro-7H-pyrrolo[1′,2′:4,5]pyrazino[1,2-b]pyridazin-4-yl)oxy)methyl ethyl carbonate] | < 100 | < 100 | < 100
O=C(Oc1c2n(ncc1=O)[C@@H]([C@H](c1ccccc1)c1cccc(F)c1F)[C@H]1CCCN1C2=O)C1CCOCC1 [Example 75, (9aR,10S)-10-((R)-(2,3-difluorophenyl)(phenyl)methyl)-3,5-dioxo-3,5,8,9,9a,10-hexahydro-7H-pyrrolo[1′,2′:4,5]pyrazino[1,2-b]pyridazin-4-yl tetrahydro-2H-pyran-4-carboxylate] | < 100 | < 100 | < 100
O=C(Oc1c2n(ncc1=O)[C@@H]([C@H](c1ccccc1)c1cccc(F)c1F)[C@H]1CCCN1C2=O)N1CCCCC1 [Example 48, (9aR,10S)-10-((R)-(2,3-difluorophenyl)(phenyl)methyl)-3,5-dioxo-3,5,8,9,9a,10-hexahydro-7H-pyrrolo[1′,2′:4,5]pyrazino[1,2-b]pyridazin-4-yl piperidine-1-carboxylate] | < 100 | < 100 | < 100
O=C(Oc1c2n(ncc1=O)[C@@H]([C@H](c1ccccc1)c1cccc(F)c1F)[C@H]1CCCN1C2=O)c1ccccc1 [Example 69, (9aR,10S)-10-((R)-(2,3-difluorophenyl)(phenyl)methyl)-3,5-dioxo-3,5,8,9,9a,10-hexahydro-7H-pyrrolo[1′,2′:4,5]pyrazino[1,2-b]pyridazin-4-yl benzoate] | < 100 | < 100 | < 100
COc1ccc([C@H](c2ccc(F)cc2)[C@H]2[C@H]3CCCN3C(=O)c3c(O)c(=O)cnn32)cc1 [Example 7, (9aR,10S)-10-((R)-(4-fluorophenyl)(4-methoxyphenyl)methyl)-4-hydroxy-8,9,9a,10-tetrahydro-7H-pyrrolo[1′,2′:4,5]pyrazino[1,2-b]pyridazine-3,5-dione] | 100 to 1000 | 100 to 1000 | 100 to 1000
CC(C)(C)OC(=O)OCOc1c2n(ncc1=O)[C@@H]([C@H](c1ccccc1)c1cccc(F)c1F)[C@H]1CCCN1C2=O [Example 55, tert-butyl ((((9aR,10S)-10-((R)-(2,3-difluorophenyl)(phenyl)methyl)-3,5-dioxo-3,5,8,9,9a,10-hexahydro-7H-pyrrolo[1′,2′:4,5]pyrazino[1,2-b]pyridazin-4-yl)oxy)methyl) carbonate] | < 100 | 100 to 1000 | 100 to 1000
CN(C)C(=O)OCOc1c2n(ncc1=O)[C@@H]([C@H](c1ccccc1)c1cccc(F)c1F)[C@H]1CCCN1C2=O [Example 57, (((9aR,10S)-10-((R)-(2,3-difluorophenyl)(phenyl)methyl)-3,5-dioxo-3,5,8,9,9a,10-hexahydro-7H-pyrrolo[1′,2′:4,5]pyrazino[1,2-b]pyridazin-4-yl)oxy)methyl dimethylcarbamate] | < 100 | < 100 | < 100
CCC(=O)OCOc1c2n(ncc1=O)[C@@H]([C@H](c1ccccc1)c1cccc(F)c1F)[C@H]1CCCN1C2=O [Example 77, (((9aR,10S)-10-((R)-(2,3-difluorophenyl)(phenyl)methyl)-3,5-dioxo-3,5,8,9,9a,10-hexahydro-7H-pyrrolo[1′,2′:4,5]pyrazino[1,2-b]pyridazin-4-yl)oxy)methyl propionate] | < 100 | < 100 | < 100
Cc1cccc([C@H](c2ccc(F)cc2)[C@H]2[C@H]3CCCN3C(=O)c3c(O)c(=O)cnn32)c1 [Example 10, (9aR,10S)-10-((S)-(4-fluorophenyl)(m-tolyl)methyl)-4-hydroxy-8,9,9a,10-tetrahydro-7H-pyrrolo[1′,2′:4,5]pyrazino[1,2-b]pyridazine-3,5-dione] | < 100 | < 100 | < 100
O=C1c2c(O)c(=O)cnn2[C@@H]([C@@H](c2ccc(F)c(F)c2)c2cccc(F)c2F)[C@H]2CCCN12 [Example 27, (9aR,10S)-10-((S)-(2,3-difluorophenyl)(3,4-difluorophenyl)methyl)-4-hydroxy-8,9,9a,10-tetrahydro-7H-pyrrolo[1′,2′:4,5]pyrazino[1,2-b]pyridazine-3,5-dione] | < 100 | < 100 | 100 to 1000

From US12071441B2, “10-(di(phenyl)methyl)-4-hydroxy-8,9,9A,10-tetrahydro-7H-pyrrolo[1′,2′:4,5]pyrazino[1,2-b]pyridazine-3,5-dione derivatives and related compounds as inhibitors of the orthomyxovirus replication for treating influenza” (Novartis AG, priority 2018, dated 2024)
